“Also recorded” adds a separate entry of the source.
How the values were obtained:
neuronal MN9D cell line = assay: BDNF secretion via in situ ELISA; type: cell-based; settings: 10 μM, 24 hrs, MN9D cells; normalized to maximal response of 10 μM 4-PPBP; mean ± SEM; asterisk = significantly different from 4-PPBP
From the text: Measuring BDNF secretion via in situ ELISA. […] The in situ ELISA improves on traditional ELISA by seeding BDNF-secreting cells directly into the wells pre-coated with an anti-BDNF primary antibody. BDNF secreted by these cells is immediately captured by the primary antibody, drastically increasing the sensitivity and reproducibility of the ELISA assay. Intact cells are removed […] the addition of the secondary and tertiary antibodies. The amount of BDNF secreted from the neuronal MN9D cells was quantified using an in situ ELISA assay developed using the BDNF EMAX® ImmunoAssay kit (Cat. No. G7611, Promega, Madison, WI). Briefly, a NUNC™ MAXISORP™ flat-bottom, polystyrene, 96-well immunoplate was coated for 48 hrs at 4° C. with an anti-BDNF monoclonal antibody diluted 1:1000 v/v in carbonate buffer containing 25 mM sodium bicarbonate and 25 mM sodium carbonate, pH 9.7. Unbound antibody was removed by washing 5 times with 150 μL of TBST buffer (20 mM Tris-HCl, pH7.6, 150 mM NaCl, and 0.05% (v/v) TWEEN® 20), before blocking non-specific sites first with blocking buffer for 1 hr and then with culture medium for 2 hrs. Cells were seeded at 35,000 cells per well and incubated overnight at 37° C. in a humidified CO2 incubator. The following day, the wells were replaced with fresh culture media containing either experimental compounds or vehicle controls, then incubated for an additional 24 hours. In addition, on the same plate, but in separate wells, BDNF standards were added ranging in concentration from 15.6-250 pg/mL. After 24 hrs incubation with experimental compounds, the media was aspirated and 100 μL of Dulbecco's phosphate saline (D-PBS without Ca^2+ and Mg^2+ supplemented with 5 mM EDTA) was added to each well and incubated for 15 min at 37° C. to promote cell lifting. Cells were then detached from the bottom of wells by triturating in the center and around the edges of the well. After removing all cell debris, the wells were rinsed five times with 150 μL of TBST. The plate was then incubated with 1:500 v/v diluted polyclonal anti-human BDNF antibody for 2 hrs at room temperature. This antibody was removed, and wells were washed five times with 150 μL of TBST, before incubating with 1:200 v/v diluted polyclonal Anti-IgY HRP conjugate for 2 hrs at room temperature. Wells were then washed five times with 150 μL of TBST and the remaining specifically bound polyclonal antibody was detected with the 50 μL colorimetric HRP substrate 3,3′,5,5′-Tetramethylbenzidine (TMB). The reaction was terminated with 50 μL of 1 M HCl and the color intensity was quantified by measuring the absorbance at 450 nm using a FLEXSTATION® 3 plate reader (Molecular Devices, Sunnyvale, CA). […] A one-way ANOVA with a Bonferroni multiple comparisons post-hoc analysis (P<0.05) was applied to determine significant differences between groups.
Further, BDNF secreted from MN9D cells can be detected 24 hours after treatment with S1R ligand, whereas BDNF secreted from the B104 cell line takes 7 days to be detected (Fujimoto, et al., 2012).
An in situ ELISA approach was utilized because of its improved sensitivity related to its rapid capture of secreted BDNF (Balkowiec & Katz, 2000; Dalwadi, et al., 2017). […] Values are averages of 2-10 experiments±SEM, and each experiment was performed in triplicate. Statistical significance at P<0.05 was determined by ANOVA followed by a Bonferroni's post-hoc test and are marked with an asterisk.

[1] = test system: rat model of focal cerebral ischemia (tMCAO); assay: Infarct and inflammation after tMCAO (TTC, Nissl, GFAP, Iba1); type: in vivo; settings: for infarct size by TTC staining: 24 hours after a single dose administered 48 hours after tMCAO
Procedure: Assessment of infarct and inflammation. For immunohistochemical assessments 6 random animals were chosen from each group by a treatment-blinded observer to reduce the chance of bias. Nissl staining was performed using thionin. Rats were deeply anesthetized with isoflurane and transcardially perfused with saline and 4% formaldehyde. Brains were removed and post fixed for 48 hours. Coronal sections were made at […] through the region of the middle cerebral artery, affixed to gelatin-coated glass slides and stained. Four sections representing Bregma levels ˜0.7, 0.2, −0.8, and −2.12 were assessed for each animal. Sections were scanned with a 4× objective using a Keyence BZ-X800 microscope and analyzed using Image J. Infarct assessment was performed by a treatment blinded observer two separate times and the average infarct was assessed by determining the extent of histologically healthy tissue using the method of Swanson (Swanson et al., 1990).
The inflammatory response to stroke was observed using immunohistochemistry for glial fibrillary acidic protein (GFAP, Neomarkers RB-087, 1:5000) to assess astrogliosis and ionized calcium binding adapter molecule 1 (Iba1 Fujifilm Wako #019-19741, 1:5000), followed by a biotinylated secondary antibody (Jackson Immuno Research #711-065-152, 1:400). […] Area of staining the striatum, cortex, and dorsal hippocampus was assessed by a treatment-blinded observer using wide-field images captured with a 4× objective using a Keyence BZ-X800. The percent area above threshold was determined with Image J. Images were processed by a treatment-blinded observer using ImageJ by converting images to 8 bits, manually outlining the areas of interest using the corpus callosum to define the boundaries of the striatum and cortex, subtracting background and subjecting the images to auto thresholding. When more than one staining run was required to process tissue, the mean gray values of a standard ROI in the contralateral cortex were used to normalize between the runs.
Rats were sacrificed under isoflurane anesthesia 2, 6, or 24 hours after dosing, and brains were removed to assess protein expression in the ischemic and contralateral cortex by immunoblotting. Brains were rapidly removed, chilled for 2 min in ice-cold saline, and sliced into 2 mm coronal slices with a brain matrix for rapid 2,3,5 triphenyltetrazolium chloride (TTC) staining. Sections were immersed in 1% TTC for 1 minute at room temperature to reveal the extent of the infarct. Cortical penumbra tissue was collected, snap frozen, and stored at −80° C. for subsequent western blotting. Protein was extracted from tissue using T-PER™ reagent with HALT protease inhibitor (Thermo-Pierce), and concentrations were determined with the PIERCE® BCA assay (Thermo-Pierce). Protein was separated on 4-20% SDS-PAGE gels (BioRad) and transferred to nitrocellulose. Blots were probed with primary antibodies for BDNF (Abcam ab226842; 1:1000) and goat anti-rabbit-HRP secondary (Thermo 32260; 1:10,000). Bands were visualized by ECL with PIERCE® SUPERSIGNAL® West Dura Femto (Thermo-Pierce) reagent using a UVP EpiChemi3. Density was assessed with Image J and normalized to β-actin (Thermo MA1-91399; 1:1000).

[2] = treatment starting 48 hours after tMCAO, 14-15 days after tMCAO, vs vehicle

CCN(CC)CCOCCOC(=O)C(CC)(CC)c1ccccc1 [Oxeladin]
Efficacy of BDNF secretion (neuronal MN9D cell line): 0.55 ± 0.04 | infarct extent / loss of healthy brain tissue by Nissl staining ([1]; 14-15 days after tMCAO, whole hemisphere, cortex and striatum, vs Vehicle, P<0.05): significantly reduced infarct extent | infarct size by TTC staining [1]: No difference in infarct size | infarct size by TTC staining ([1]; listed as oxeladin): No significant difference in infarct size | astrogliosis (GFAP staining) [1, 2]: no differences between vehicle and oxeladin treated groups; also recorded: did not alter astrogliosis | microgliosis (Iba1 staining) [1, 2]: no differences observed

— patent US20250134902A1, “DRUG REPURPOSING FOR DELAYED TREATMENT OF ISCHEMIC STROKE” (UNIVESRITY OF NORTH TEXAS HEALTH SCIENCE CENTER, priority 2022, published 2025)
